Experimental data taken from patent publication US20190030009A1, “COMPOUNDS AND COMPOSITIONS FOR THE TREATMENT OF CRYPTOSPORIDIOSIS” (Novartis AG, priority 2016, published 2019).

Key:
[1] = Cytotoxicity against HepG2; assay type: cell-based; conditions: human, HepG2 cells (ATCC HB-8065), 5 days exposure
Summary of the method: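 Cells seeded at 10^5 per well, held 24 h at 37 °C, then exposed to two-fold serial dilutions of compound for 5 days. Viability read with Cell Proliferation Kit II (XTT); values reported as CC50.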

Cryptosporidium parvum = experiment: Cytopathic effect (CPE) based assay, C. parvum infected HCT-8 cells; conditions: HCT-8 host cell viability (CellTiter-Glo), 48 hours treatment, read-out: Cp CPE EC50
Summary of the method: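 HCT-8 cells were batch-infected with excysted C. parvum (Iowa isolate) oocysts at MOI 1:2 (host:parasite) for 3 h at 37 °C, then seeded and incubated 24 h before compound addition. Compounds were given as 3-fold dilution series (final DMSO <0.5%). Host-cell loss (cytopathic effect) was read as viability with CellTiter-Glo.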

| Structure (SMILES) | CC50 at 5 days [1] [nM] | EC50 (Cryptosporidium parvum) [nM] |
| --- | --- | --- |
| CNC(=O)c1ccc(-c2cnn3ccc(N(C)C(=O)c4ccc(C#N)cn4)cc23)cc1 [Example 94] | 31200 | 368 |
| CCNC(=O)c1ccc(-c2cnn3ccc(C(=O)N(c4ccc(C#N)cn4)C4CC4)cc23)cc1 [Example 127] | 40200 | 102 |
| CCN(C(=O)c1ccn2ncc(-c3ccc(C(=O)NC)cc3)c2c1)c1ccc(C#N)cn1 [Example 90] | 14800 | 68 |
| CCN(C(=O)c1ccn2ncc(-c3ccc(C(=O)NC)nc3)c2c1)c1ccc(C#N)cn1 [Example 150] | 9820 | 1070 |
| CNC(=O)c1ccc(-c2cnn3ccc(C(=O)N(c4ccc(Cl)cn4)C4CC4)cc23)cc1 [Example 124] | 21000 | 103 |
| CNC(=O)c1ccc(-c2cnn3ccc(C(=O)N(c4ccc(C(F)(F)F)cn4)C4CCC4)cc23)cc1 [Example 160] | 2090 | 85 |
| CNC(=O)c1ccc(-c2cnn3ccc(C(=O)N(c4ccc(C#N)c(OC)n4)C4CC4)cc23)cc1 [Example 149] | 23300 | 55 |
| CCN(C(=O)c1ccn2ncc(-c3ccc(C(=O)NC)cc3)c2c1)c1ccc(C(F)(F)F)cn1 [Example 96] | 7140 | 50 |
| CNC(=O)c1ccc(-c2cnn3ccc(C(=O)N(c4ccc(C#N)cn4)C4CCC4)cc23)cc1 [Example 112] | 5020 | 270 |
| CNC(=O)c1ccc(-c2cnn3ccc(C(=O)N(NC)c4ccc(C#N)cc4)cc23)cn1 [Example 92] | 8520 | 310 |
| N#Cc1ccc(N(C(=O)c2ccn3ncc(-c4ccc(C(N)=O)cc4)c3c2)C2CC2)nc1 [Example 120] | 23700 | 172 |
| CNC(=O)c1ccc(-c2cnn3ccc(C(=O)N(c4ccc(C(F)(F)F)cn4)C(C)C)cc23)cc1 [Example 153] | 20600 | 39 |
| N#Cc1ccc(N(C(=O)c2ccn3ncc(-c4ccc(C(=O)NC5CC5)cc4)c3c2)C2CC2)nc1 [Example 123] | 17200 | 2990 |
| CC(C)NC(=O)c1ccc(-c2cnn3ccc(C(=O)N(c4ccc(C#N)cn4)C4CC4)cc23)cc1 [Example 121] | 33200 | 8640 |
| CNC(=O)c1ccc(-c2cnn3ccc(C(=O)N(c4ccc(C#N)cn4)C(C)C)cc23)cc1 [Example 91] | 18700 | 129 |
| N#Cc1ccc(N(C(=O)c2ccn3ncc(-c4ccc(C(=O)NC5COC5)cc4)c3c2)C2CC2)nc1 [Example 131] | > 50000 | 2730 |
